In patent US11945822B2, “Pyrazolo-triazine and/or pyrazolo-pxrimidine derivatives as selective inhibitor of cyclin dependent kinase” (QURIENT CO., LTD., priority 2018, dated 2024):

The compounds below were run against T1, CDK1/Cyclin B (Homo sapiens, UniProt P06493) (assay: Enzymatic assay for CDK1 (FRET based LANCE Ultra kinase assay)). Conditions: read-out: CDK1 enzymatic activity (IC50 range).
T1 construct: purchased Invitrogen PR4768C
Assay type: biochemical
In short: (§1)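 Each CDK complex ([…]) phosphorylated 68 nM ULight-MBP peptide with ATP at Km for 60 min at 23° C., against 8 compound doses (4-fold dilutions). EDTA/Eu-anti-phospho-MBP detection, 60 min, then TR-FRET emission at 615 and 665 nm.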

T1 sequence (P06493 whole entry): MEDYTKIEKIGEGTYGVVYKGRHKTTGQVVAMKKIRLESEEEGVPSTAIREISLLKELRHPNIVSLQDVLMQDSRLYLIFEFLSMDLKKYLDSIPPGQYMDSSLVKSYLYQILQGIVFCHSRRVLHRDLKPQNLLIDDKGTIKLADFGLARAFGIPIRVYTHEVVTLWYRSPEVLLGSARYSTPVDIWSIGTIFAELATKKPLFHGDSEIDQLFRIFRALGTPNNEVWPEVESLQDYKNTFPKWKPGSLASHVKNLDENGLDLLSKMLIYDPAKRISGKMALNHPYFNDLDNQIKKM
T1 sequence (P14635 whole entry partner): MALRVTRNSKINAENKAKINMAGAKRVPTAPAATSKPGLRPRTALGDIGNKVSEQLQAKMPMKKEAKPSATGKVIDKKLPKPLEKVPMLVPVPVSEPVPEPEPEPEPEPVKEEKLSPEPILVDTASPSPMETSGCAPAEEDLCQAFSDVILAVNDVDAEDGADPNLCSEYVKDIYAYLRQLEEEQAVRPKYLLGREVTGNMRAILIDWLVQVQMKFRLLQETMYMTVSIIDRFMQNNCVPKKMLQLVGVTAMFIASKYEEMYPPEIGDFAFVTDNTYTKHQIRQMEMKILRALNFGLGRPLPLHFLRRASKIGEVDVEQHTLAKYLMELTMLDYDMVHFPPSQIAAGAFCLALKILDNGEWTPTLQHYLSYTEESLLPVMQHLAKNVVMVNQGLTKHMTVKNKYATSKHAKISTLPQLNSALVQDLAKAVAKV

IC50 | SMILES
100 to 1000 nM | CC(C)c1cnn2c(NCc3ccccc3-n3cc4cc(C(=O)NC5COC5)ccc4n3)nc(N3CCC(N)CC3)nc12 [Compound 176]
> 1000 nM | Cc1cccc(-c2cc3ccccc3[nH]2)c1CNc1nc(N2CCC(N)CC2)nc2c(C(C)C)cnn12 [Compound 184]
> 1000 nM | CC(C)c1cnn2c(NCc3c(Cl)cccc3-c3ccn(C4CCNCC4)n3)nc(N3CCC(N)CC3)nc12 [Compound 195]

These compounds were tested against T2, CDK2/Cyclin A (Homo sapiens, UniProt P24941) (assay: Enzymatic assay for CDK2 (FRET based LANCE Ultra kinase assay)). Conditions: read-out: CDK2 enzymatic activity (IC50 range).
T2 construct: purchased Invitrogen PV6290
Assay type: biochemical
In short: as §1

IC50 | SMILES
100 to 1000 nM | CC(C)c1cnn2c(NCc3ccccc3-n3cc4cc(C(=O)NC5COC5)ccc4n3)nc(N3CCC(N)CC3)nc12 [Compound 176]
> 1000 nM | Cc1cccc(-c2cc3ccccc3[nH]2)c1CNc1nc(N2CCC(N)CC2)nc2c(C(C)C)cnn12 [Compound 184]
> 1000 nM | CC(C)c1cnn2c(NCc3c(Cl)cccc3-c3ccn(C4CCNCC4)n3)nc(N3CCC(N)CC3)nc12 [Compound 195]

The compounds below were run against T3, CDK5/p25 (Homo sapiens, UniProt Q00535) (assay: Enzymatic assay for CDK5 (FRET based LANCE Ultra kinase assay)). Conditions: read-out: CDK5 enzymatic activity (IC50 range).
T3 construct: purchased Invitrogen PR8543B
Assay type: biochemical
In short: as §1

T3 sequence (Q00535 whole entry): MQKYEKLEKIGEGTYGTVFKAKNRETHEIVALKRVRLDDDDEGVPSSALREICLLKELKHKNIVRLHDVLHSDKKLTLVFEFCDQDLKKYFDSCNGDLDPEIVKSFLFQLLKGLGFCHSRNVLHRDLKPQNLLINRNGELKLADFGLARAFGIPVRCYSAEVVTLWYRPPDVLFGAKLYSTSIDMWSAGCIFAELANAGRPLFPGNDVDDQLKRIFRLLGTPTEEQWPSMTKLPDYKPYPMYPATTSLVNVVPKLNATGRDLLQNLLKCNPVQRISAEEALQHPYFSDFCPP
T3 sequence (Q15078 99-307 partner limits assumed): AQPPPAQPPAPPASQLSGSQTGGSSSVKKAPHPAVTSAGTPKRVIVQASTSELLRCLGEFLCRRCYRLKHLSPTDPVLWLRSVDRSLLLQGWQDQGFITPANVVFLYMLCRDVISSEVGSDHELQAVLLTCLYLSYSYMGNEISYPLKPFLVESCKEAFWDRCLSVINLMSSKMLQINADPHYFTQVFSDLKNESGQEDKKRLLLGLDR

IC50 | SMILES
100 to 1000 nM | CC(C)c1cnn2c(NCc3ccccc3-n3cc4cc(C(=O)NC5COC5)ccc4n3)nc(N3CCC(N)CC3)nc12 [Compound 176]
100 to 1000 nM | Cc1cccc(-c2cc3ccccc3[nH]2)c1CNc1nc(N2CCC(N)CC2)nc2c(C(C)C)cnn12 [Compound 184]
100 to 1000 nM | CC(C)c1cnn2c(NCc3c(Cl)cccc3-c3ccn(C4CCNCC4)n3)nc(N3CCC(N)CC3)nc12 [Compound 195]

Each compound was assayed against T4, CDK7/Cyclin H/MNAT1 (Homo sapiens, UniProt P50613) (assay: Enzymatic assay for CDK7 (FRET based LANCE Ultra kinase assay)). Conditions: CDK7 over CDK1.
T4 construct: purchased Invitrogen PR6749B
Assay type: biochemical
In short: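 Inhibition was measured at Km ATP by time-resolved FRET between a Eu anti-phospho antibody and a phosphorylated ULight peptide. The enzyme was the purified CDK7/cyclin complex, and data were curve-fitted.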

T4 sequence (P50613 whole entry): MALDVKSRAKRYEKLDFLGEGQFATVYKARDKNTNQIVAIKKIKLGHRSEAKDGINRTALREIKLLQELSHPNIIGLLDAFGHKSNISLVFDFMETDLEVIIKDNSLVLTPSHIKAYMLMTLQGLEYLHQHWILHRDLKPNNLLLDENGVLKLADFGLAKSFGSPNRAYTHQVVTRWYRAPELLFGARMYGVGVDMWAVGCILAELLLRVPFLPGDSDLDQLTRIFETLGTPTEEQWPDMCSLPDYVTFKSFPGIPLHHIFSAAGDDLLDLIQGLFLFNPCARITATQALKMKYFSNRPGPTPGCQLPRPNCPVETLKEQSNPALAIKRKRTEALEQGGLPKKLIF
T4 sequence (P51946 whole entry partner): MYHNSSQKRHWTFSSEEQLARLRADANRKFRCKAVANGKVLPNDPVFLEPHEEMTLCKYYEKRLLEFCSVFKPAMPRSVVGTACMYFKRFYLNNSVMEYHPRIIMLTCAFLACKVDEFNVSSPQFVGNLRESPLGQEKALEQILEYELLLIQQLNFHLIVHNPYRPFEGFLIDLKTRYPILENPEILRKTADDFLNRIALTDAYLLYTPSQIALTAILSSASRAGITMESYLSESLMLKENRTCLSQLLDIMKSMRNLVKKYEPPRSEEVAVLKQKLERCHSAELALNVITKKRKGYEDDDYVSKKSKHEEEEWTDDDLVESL
T4 sequence (P51948 whole entry partner): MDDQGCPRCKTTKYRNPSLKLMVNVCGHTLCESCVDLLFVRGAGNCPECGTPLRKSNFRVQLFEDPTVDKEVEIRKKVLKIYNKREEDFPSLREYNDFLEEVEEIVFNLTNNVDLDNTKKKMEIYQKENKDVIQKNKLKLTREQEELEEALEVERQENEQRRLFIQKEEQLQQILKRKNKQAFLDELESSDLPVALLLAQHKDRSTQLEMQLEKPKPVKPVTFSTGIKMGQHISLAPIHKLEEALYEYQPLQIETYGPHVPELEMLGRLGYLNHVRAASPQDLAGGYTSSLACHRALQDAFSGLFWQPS

CDK1/CDK7: Selectivity of CDK7 inhibition over CDK1 inhibition | SMILES
A (A=greater than 200 fold) | Cc1cccc(-c2cc3ccccc3[nH]2)c1CNc1nc(N2CCC(N)CC2)nc2c(C(C)C)cnn12 [Compound 184]
A (A=greater than 200 fold) | CC(C)c1cnn2c(NCc3c(Cl)cccc3-c3ccn(C4CCNCC4)n3)nc(N3CCC(N)CC3)nc12 [Compound 195]

SMILES | CDK1/CDK7: Selectivity of CDK7 inhibition over CDK1 inhibition
CC(C)c1cnn2c(NCc3ccccc3-n3cc4cc(C(=O)NC5COC5)ccc4n3)nc(N3CCC(N)CC3)nc12 [Compound 176] | B (B=less than 200 fold, but greater than 20 fold)

Same assay, conditions: CDK7 over CDK2

CDK2/CDK7: Selectivity of CDK7 inhibition over CDK2 inhibition | SMILES
A (A=greater than 200 fold) | Cc1cccc(-c2cc3ccccc3[nH]2)c1CNc1nc(N2CCC(N)CC2)nc2c(C(C)C)cnn12 [Compound 184]
A (A=greater than 200 fold) | CC(C)c1cnn2c(NCc3c(Cl)cccc3-c3ccn(C4CCNCC4)n3)nc(N3CCC(N)CC3)nc12 [Compound 195]

SMILES | CDK2/CDK7: Selectivity of CDK7 inhibition over CDK2 inhibition
CC(C)c1cnn2c(NCc3ccccc3-n3cc4cc(C(=O)NC5COC5)ccc4n3)nc(N3CCC(N)CC3)nc12 [Compound 176] | B (B=less than 200 fold, but greater than 20 fold)

Same assay, conditions: CDK7 over CDK5

SMILES | CDK5/CDK7: Selectivity of CDK7 inhibition over CDK5 inhibition
CC(C)c1cnn2c(NCc3ccccc3-n3cc4cc(C(=O)NC5COC5)ccc4n3)nc(N3CCC(N)CC3)nc12 [Compound 176] | B (B=less than 200 fold, but greater than 20 fold)
Cc1cccc(-c2cc3ccccc3[nH]2)c1CNc1nc(N2CCC(N)CC2)nc2c(C(C)C)cnn12 [Compound 184] | B (B=less than 200 fold, but greater than 20 fold)
CC(C)c1cnn2c(NCc3c(Cl)cccc3-c3ccn(C4CCNCC4)n3)nc(N3CCC(N)CC3)nc12 [Compound 195] | A (A=greater than 200 fold)

Same assay, conditions: read-out: CDK7 enzymatic activity (IC50 range)

IC50 | SMILES
< 100 nM | CC(C)c1cnn2c(NCc3ccccc3-n3cc4cc(C(=O)NC5COC5)ccc4n3)nc(N3CCC(N)CC3)nc12 [Compound 176]
< 100 nM | Cc1cccc(-c2cc3ccccc3[nH]2)c1CNc1nc(N2CCC(N)CC2)nc2c(C(C)C)cnn12 [Compound 184]
< 100 nM | CC(C)c1cnn2c(NCc3c(Cl)cccc3-c3ccn(C4CCNCC4)n3)nc(N3CCC(N)CC3)nc12 [Compound 195]

Each compound was assayed on HCT116 (assay: Cellular HCT116 viability assay (CellTiter-Glo, 72 hours)). Conditions: Homo sapiens, HCT-116.
Assay type: cell-based
In short: (§2)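 Luminescent ATP read-out (CellTiter-Glo) after 72 h compound exposure at 37 °C/5% CO2; duplicate wells; vehicle control DMSO <0.1% final; seeding density set per cell line.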

IC50 | SMILES
< 1000 nM | Cc1cccc(-c2cc3ccccc3[nH]2)c1CNc1nc(N2CCC(N)CC2)nc2c(C(C)C)cnn12 [Compound 184]
< 1000 nM | CC(C)c1cnn2c(NCc3c(Cl)cccc3-c3ccn(C4CCNCC4)n3)nc(N3CCC(N)CC3)nc12 [Compound 195]

The compounds below were run on H460 (assay: Cellular H460 viability assay (CellTiter-Glo, 72 hours)). Conditions: Homo sapiens, NCI-H460.
Assay type: cell-based
In short: as §2

IC50 | SMILES
< 1000 nM | CC(C)c1cnn2c(NCc3ccccc3-n3cc4cc(C(=O)NC5COC5)ccc4n3)nc(N3CCC(N)CC3)nc12 [Compound 176]
< 1000 nM | Cc1cccc(-c2cc3ccccc3[nH]2)c1CNc1nc(N2CCC(N)CC2)nc2c(C(C)C)cnn12 [Compound 184]
< 1000 nM | CC(C)c1cnn2c(NCc3c(Cl)cccc3-c3ccn(C4CCNCC4)n3)nc(N3CCC(N)CC3)nc12 [Compound 195]

These compounds were tested on MM.1S (assay: Cellular MM.1S viability assay (CellTiter-Glo, 72 hours)). Conditions: Homo sapiens, MM1.S.
Assay type: cell-based
From the text: Human T-cell acute lymphoblastic leukemia cell line, MOLT-4 (ATCC, Cat #CRL-1582), Human multiple myeloma cell line, RPMI-8226 (Invitrogen, Cat #22400-089) and MM.1S (ATCC, Cat #CRL-2974), NSCLC (Non-small cell lung cancer) cell line H460 (ATCC, Cat #HTB-177), Human colon colorectal carcinoma cell line HCT116 (ATCC, Cat #CCL-247), Human acute monocytic leukemia cell line MV4-11 (ATCC, Cat #CRL-9591), OVCAR-3 (ATCC, Cat #HTB-161) and A2780 (ECACC, Cat #93112519) were obtained from ATCC. Cells were grown in RPMI-1640 media (Invitrogen, Cat #22400-089) supplemented with 10% FBS (Invitrogen, Cat #10099141) and 1% penicillin/streptomycin (Invitrogen, Cat #15070063) and cultured at 37° C., 5% CO2 in a humidified chamber. All cell lines were routinely tested for mycoplasma.
The effect of the CDK7 inhibitor to inhibit the growth of target cancer cells was evaluated through the 72 hours time period of viability assay. Briefly, the candidate cell line ware plated in 96 well plate at the following density of cells respectively. 1×10^4 cells/well for MOLT-4, RPMI-8226, MV4-11 and MM.1S, 5×10^3 for H460, HCT116 and OVCAR-3 and IX 10^3 for A2780. After 24 hours, the cells were treated with various concentrations of the compound (ranging from 0.0015 uM to 10 uM). DMSO solvent without compound served as a control and final DMSO concentration less than 0.1%. After 72 hours of incubation at 37° C., 5% CO2 incubator, cells were analyzed for the viability using the CellTiter-Glo Luminescent Cell Viability Assay (Promega, Cat #G7570). All viability assays were performed in duplicate and Luminescence was read using an Envision (Perkin Elmer, USA). Data was analyzed using XLfit software.

IC50 | SMILES
≤ 1000 nM | CC(C)c1cnn2c(NCc3ccccc3-n3cc4cc(C(=O)NC5COC5)ccc4n3)nc(N3CCC(N)CC3)nc12 [Compound 176]
≤ 1000 nM | Cc1cccc(-c2cc3ccccc3[nH]2)c1CNc1nc(N2CCC(N)CC2)nc2c(C(C)C)cnn12 [Compound 184]
≤ 1000 nM | CC(C)c1cnn2c(NCc3c(Cl)cccc3-c3ccn(C4CCNCC4)n3)nc(N3CCC(N)CC3)nc12 [Compound 195]

These compounds were tested on MV4-11 (assay: Cellular MV4-11 viability assay (CellTiter-Glo, 72 hours)). Conditions: Homo sapiens.
Assay type: cell-based
In short: as §2

IC50 | SMILES
< 1000 nM | CC(C)c1cnn2c(NCc3ccccc3-n3cc4cc(C(=O)NC5COC5)ccc4n3)nc(N3CCC(N)CC3)nc12 [Compound 176]
< 1000 nM | Cc1cccc(-c2cc3ccccc3[nH]2)c1CNc1nc(N2CCC(N)CC2)nc2c(C(C)C)cnn12 [Compound 184]
< 1000 nM | CC(C)c1cnn2c(NCc3c(Cl)cccc3-c3ccn(C4CCNCC4)n3)nc(N3CCC(N)CC3)nc12 [Compound 195]
